Active and inactive are the calls of the source.
Assays:
[1] = molecular target: T1, Sentrin-specific protease 8 (Homo sapiens, UniProt Q96LD8); experiment: inhibition of human SENP8 cleavage activity – biochemical, luminescence, SAR follow-up (AID 504501); format: functional
T1 sequence (Q96LD8 whole entry): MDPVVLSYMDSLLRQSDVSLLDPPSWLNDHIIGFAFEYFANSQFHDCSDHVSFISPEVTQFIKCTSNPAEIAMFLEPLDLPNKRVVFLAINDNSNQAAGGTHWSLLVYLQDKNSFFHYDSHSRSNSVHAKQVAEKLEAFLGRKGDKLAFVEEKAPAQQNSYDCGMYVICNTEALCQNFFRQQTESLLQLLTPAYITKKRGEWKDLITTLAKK

Caspase-3 = molecular target: T2, Caspase-3 (Homo sapiens, UniProt P42574); experiment: SAR Analysis of small molecule inhibitors of Sentrin-specific proteases (SENPs) using a Caspase-3 Selectivity assay. [Related pubchem assays (depositor defined):AID2540, AID2599, AID434973, AID489001]; format: functional
T2 sequence (P42574 whole entry): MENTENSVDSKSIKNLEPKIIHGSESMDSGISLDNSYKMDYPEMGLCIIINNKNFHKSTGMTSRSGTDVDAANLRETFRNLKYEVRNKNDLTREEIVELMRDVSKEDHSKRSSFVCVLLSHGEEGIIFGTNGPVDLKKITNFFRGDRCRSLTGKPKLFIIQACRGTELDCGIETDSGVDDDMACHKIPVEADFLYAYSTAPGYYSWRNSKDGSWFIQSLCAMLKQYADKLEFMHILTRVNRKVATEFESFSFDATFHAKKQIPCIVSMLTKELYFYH

[2] = molecular target: T3, Sentrin-specific protease 6 (Homo sapiens, UniProt Q9GZR1); experiment: SAR Analysis of small molecule inhibitors of Sentrin-specific protease 6 (SENP6) using a Luminescent assay. [Related pubchem assays (depositor defined):AID2582, AID2599]; format: functional
T3 sequence (Q9GZR1 whole entry): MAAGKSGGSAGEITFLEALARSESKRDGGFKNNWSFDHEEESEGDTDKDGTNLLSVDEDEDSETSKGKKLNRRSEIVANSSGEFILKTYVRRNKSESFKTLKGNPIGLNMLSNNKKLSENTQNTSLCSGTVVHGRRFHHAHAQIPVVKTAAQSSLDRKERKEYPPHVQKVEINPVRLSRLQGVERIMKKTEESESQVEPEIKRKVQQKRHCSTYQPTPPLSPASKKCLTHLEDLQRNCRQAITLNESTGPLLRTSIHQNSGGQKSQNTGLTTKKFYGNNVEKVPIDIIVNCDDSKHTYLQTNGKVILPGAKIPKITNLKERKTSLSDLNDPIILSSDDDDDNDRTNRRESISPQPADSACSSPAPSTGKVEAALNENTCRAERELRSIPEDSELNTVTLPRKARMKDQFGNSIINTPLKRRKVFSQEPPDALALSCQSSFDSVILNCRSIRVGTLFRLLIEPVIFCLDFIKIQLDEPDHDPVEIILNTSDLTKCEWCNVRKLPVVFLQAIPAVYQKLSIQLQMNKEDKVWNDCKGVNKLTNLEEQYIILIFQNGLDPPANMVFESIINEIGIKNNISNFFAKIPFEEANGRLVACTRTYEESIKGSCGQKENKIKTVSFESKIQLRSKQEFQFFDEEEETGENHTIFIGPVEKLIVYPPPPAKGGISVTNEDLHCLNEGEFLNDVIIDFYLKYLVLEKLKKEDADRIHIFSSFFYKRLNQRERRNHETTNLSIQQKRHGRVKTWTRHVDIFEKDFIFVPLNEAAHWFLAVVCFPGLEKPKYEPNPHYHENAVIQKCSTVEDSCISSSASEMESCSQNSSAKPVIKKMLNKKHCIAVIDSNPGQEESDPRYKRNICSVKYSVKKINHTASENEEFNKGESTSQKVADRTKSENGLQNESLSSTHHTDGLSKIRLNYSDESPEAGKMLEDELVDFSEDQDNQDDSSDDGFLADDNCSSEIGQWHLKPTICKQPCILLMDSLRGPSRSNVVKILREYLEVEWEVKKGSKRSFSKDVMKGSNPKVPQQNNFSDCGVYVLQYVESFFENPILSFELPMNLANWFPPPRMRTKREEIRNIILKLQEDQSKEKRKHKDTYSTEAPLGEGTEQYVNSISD

[3] = molecular target: T4, Sentrin-specific protease 7 (Homo sapiens, UniProt Q9BQF6); experiment: inhibition of human SENP7 cleavage activity – biochemical, luminescence, SAR follow-up (AID 504497); format: functional
T4 sequence (Q9BQF6 whole entry): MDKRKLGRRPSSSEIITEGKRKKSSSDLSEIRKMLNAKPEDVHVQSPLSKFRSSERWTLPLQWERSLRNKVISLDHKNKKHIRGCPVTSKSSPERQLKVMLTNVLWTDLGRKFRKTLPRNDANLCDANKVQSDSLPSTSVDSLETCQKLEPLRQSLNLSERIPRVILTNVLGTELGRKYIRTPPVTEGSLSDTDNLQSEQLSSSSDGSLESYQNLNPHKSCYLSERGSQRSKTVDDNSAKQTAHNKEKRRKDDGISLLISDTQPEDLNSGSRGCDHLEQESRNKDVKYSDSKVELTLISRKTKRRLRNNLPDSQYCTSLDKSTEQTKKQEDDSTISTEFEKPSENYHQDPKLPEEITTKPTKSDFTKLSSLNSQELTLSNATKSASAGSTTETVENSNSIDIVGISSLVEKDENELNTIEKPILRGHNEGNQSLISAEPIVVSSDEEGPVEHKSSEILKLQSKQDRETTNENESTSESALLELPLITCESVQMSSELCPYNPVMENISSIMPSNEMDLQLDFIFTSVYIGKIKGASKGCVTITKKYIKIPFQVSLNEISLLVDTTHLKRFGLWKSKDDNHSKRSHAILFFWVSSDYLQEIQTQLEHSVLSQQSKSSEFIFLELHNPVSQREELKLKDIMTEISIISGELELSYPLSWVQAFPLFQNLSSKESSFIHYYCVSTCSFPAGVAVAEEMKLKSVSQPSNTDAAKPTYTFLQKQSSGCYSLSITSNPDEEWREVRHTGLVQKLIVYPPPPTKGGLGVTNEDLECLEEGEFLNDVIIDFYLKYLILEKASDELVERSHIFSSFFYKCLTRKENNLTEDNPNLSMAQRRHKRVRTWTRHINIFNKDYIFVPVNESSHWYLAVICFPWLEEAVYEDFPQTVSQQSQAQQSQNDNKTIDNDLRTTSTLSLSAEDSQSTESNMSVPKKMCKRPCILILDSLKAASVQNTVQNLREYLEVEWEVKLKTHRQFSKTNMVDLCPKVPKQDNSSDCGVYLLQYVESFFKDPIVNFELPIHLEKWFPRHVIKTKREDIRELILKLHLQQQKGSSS

Phospholipase D1 [4] = molecular target: T5, Phospholipase D1 (Homo sapiens, UniProt Q13393); experiment: PLD1 purified enzyme concentration response. [Related pubchem assays (depositor defined):AID588854]; format: functional
T5 sequence (Q13393 whole entry): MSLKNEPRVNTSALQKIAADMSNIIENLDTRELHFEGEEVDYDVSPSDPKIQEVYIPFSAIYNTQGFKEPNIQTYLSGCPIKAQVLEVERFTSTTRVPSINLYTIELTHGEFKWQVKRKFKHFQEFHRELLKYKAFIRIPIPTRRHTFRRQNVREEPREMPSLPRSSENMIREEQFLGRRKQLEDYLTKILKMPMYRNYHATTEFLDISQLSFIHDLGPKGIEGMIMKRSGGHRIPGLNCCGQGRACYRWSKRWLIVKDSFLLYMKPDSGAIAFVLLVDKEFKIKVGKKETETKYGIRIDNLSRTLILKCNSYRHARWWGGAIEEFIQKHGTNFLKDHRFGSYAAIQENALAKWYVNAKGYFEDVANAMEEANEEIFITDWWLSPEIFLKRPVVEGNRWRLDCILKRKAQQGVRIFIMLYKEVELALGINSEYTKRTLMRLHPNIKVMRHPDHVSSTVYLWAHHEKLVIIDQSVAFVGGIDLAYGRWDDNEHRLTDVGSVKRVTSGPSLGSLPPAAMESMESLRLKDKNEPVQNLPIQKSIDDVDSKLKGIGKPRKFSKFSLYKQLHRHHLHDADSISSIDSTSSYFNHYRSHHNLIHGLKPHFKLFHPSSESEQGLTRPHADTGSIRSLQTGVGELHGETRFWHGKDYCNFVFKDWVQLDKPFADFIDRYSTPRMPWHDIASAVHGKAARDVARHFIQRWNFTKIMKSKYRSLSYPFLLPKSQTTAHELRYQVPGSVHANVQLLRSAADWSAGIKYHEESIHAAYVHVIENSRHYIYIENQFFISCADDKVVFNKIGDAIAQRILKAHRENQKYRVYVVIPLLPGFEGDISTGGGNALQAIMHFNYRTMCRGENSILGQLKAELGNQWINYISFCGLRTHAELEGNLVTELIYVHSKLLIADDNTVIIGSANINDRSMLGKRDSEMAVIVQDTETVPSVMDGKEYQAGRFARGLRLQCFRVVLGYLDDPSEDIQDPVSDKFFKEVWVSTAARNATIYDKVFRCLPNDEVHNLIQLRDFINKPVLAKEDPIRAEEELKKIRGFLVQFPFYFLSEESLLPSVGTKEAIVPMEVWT

Phospholipase D2 [5] = molecular target: T6, Phospholipase D2 (Homo sapiens, UniProt O14939); experiment: PLD2 purified enzyme concentration response. [Related pubchem assays (depositor defined):AID588854]; format: functional
Phospholipase D1 [6] = molecular target: T5, Phospholipase D1; experiment: cellular phospholipase D1 inhibition IC50 – cell-based, dose response (AID 602151); format: functional;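 also: cellular PLD1 assay in Calu-1 cells stimulated with PMA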
Phospholipase D2 [7] = molecular target: T6, Phospholipase D2; experiment: cellular phospholipase D2 inhibition IC50 – cell-based, dose response (AID 602147); format: functional;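 also: cellular assay in HEK293 cells overexpressing GFP-tagged PLD2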
[8] = molecular target: FAD-linked sulfhydryl oxidase ALR (Homo sapiens, UniProt P55789); experiment: ALR-catalysed DTT oxidation blockers – biochemical, H2O2 detection, luminescence, cherry-pick, dose response (AID 493248)
HEK293 = experiment: cells; format: functional, cell-based; conditions: Homo sapiens
[9] = molecular target: Nuclear receptor subfamily 0 group B member 1 (Homo sapiens, UniProt P51843); experiment: Luminescence-based cell-based high throughput dose response assay for inhibitors of the orphan nuclear receptor subfamily 0, group B, member 1 (DAX1; NR0B1). [Related pubchem assays (depositor defined):AID504766, AID504790]; format: functional
[10] = decrease of insulin promoter-GFP reporter – imaging, high-content screening, mouse beta cells (AID 1628); format: functional; conditions: MIN6
[11] = MIN6 cell viability loss – mouse insulinoma, cytotoxicity control, dose response (AID 2122); format: functional;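 also: confirmatory high-throughput counterscreen run to flag cytotoxic compounds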

T6 sequence (O14939 whole entry): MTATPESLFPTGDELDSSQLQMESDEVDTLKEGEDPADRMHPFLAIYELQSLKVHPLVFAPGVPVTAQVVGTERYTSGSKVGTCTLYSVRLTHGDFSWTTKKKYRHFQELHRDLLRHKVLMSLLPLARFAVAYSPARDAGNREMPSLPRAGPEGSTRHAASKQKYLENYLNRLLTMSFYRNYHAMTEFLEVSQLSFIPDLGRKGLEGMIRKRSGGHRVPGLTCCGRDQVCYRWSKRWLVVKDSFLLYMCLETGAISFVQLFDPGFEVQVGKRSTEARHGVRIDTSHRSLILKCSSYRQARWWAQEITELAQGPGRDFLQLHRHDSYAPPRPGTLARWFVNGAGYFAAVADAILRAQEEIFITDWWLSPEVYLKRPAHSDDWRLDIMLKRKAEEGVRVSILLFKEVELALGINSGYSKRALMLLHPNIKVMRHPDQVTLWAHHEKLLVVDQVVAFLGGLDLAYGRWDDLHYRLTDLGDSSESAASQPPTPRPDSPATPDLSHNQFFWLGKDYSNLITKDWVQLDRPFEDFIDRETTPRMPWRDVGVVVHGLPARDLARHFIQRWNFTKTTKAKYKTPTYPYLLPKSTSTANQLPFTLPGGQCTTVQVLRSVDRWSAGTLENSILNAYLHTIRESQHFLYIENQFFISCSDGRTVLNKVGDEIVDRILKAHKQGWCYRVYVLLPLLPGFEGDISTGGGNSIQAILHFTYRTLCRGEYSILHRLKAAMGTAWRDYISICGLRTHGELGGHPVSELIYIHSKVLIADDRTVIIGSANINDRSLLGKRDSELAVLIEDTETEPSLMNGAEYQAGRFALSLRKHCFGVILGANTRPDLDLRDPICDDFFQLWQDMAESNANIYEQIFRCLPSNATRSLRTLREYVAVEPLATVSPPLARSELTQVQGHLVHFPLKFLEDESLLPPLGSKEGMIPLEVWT
Nuclear receptor subfamily 0 group B member 1, sequence (P51843 whole entry): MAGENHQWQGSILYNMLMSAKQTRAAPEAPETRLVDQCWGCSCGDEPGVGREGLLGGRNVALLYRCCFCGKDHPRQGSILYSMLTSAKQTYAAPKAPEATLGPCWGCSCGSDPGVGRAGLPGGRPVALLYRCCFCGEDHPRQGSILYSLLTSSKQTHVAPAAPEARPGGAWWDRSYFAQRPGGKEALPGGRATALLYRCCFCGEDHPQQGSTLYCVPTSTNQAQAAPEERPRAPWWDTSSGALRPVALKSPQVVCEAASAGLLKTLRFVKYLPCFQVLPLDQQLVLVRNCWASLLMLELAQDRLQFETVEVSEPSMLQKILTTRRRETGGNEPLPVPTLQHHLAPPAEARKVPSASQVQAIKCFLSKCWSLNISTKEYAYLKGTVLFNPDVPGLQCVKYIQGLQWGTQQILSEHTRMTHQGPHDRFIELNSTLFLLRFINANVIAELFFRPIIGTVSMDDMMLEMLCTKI
FAD-linked sulfhydryl oxidase ALR, sequence (P55789 whole entry): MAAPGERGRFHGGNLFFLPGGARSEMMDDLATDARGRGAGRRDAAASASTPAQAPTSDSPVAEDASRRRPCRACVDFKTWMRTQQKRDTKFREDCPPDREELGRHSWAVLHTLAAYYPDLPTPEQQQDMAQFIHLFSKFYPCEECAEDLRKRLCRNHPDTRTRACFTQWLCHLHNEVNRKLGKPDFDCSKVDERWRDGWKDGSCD

With CCOc1ccc2nc(N(Cc3cccnc3)C(=O)c3ccc(Cl)s3)sc2c1 the IC50 [1] was > 99 µM (inactive), the IC50 (Caspase-3) was > 99 µM (inactive) and the IC50 [2] was > 99 µM (inactive). The IC50 [3] was > 99 µM (inactive).
In the case of O=C(NCCN1CCC2(CC1)C(=O)NCN2c1ccccc1)c1cc2ccccc2s1, the IC50 (Phospholipase D1 [4]) is reported as 4 µM (active) and the IC50 (Phospholipase D2 [5]) is reported as 0.092 µM (active).
For C[C@@H](CN1CCC(n2c(=O)[nH]c3ccccc32)CC1)NC(=O)C1C[C@H]1c1ccccc1 (some centres not stated), the IC50 (Phospholipase D1 [6]) was 0.088 µM (active) and the IC50 (Phospholipase D2 [7]) was 14.5 µM (active).
In the case of O=C(NCCN1CCC2(CC1)C(=O)NCN2c1ccc(F)cc1)c1cnc2ccccc2c1, the IC50 (Phospholipase D1 [4]) is reported as 20 µM (active) and the IC50 (Phospholipase D2 [5]) is reported as 0.14 µM (active).
With C[C@@H](CN1CCC(n2c(=O)[nH]c3ccccc32)CC1)NC(=O)c1cc2ccccc2[nH]1 the IC50 (Phospholipase D1 [6]) was 0.001 µM (active) and the IC50 (Phospholipase D2 [7]) was 0.066 µM (active).
With COc1ccc(/C=N/Nc2nc3ccccc3[nH]2)c(OC)c1OC the AC50 [8] was 0.278 µM (active), the IC50 (HEK293) was > 67.5 µM (inactive) and the IC50 [9] was > 67.5 µM (inactive).
In the case of Cc1c(Cl)cccc1NC(=O)CCC(=O)N/N=C/c1ccc[nH]1, the IC50 [10] is reported as 2.31 µM (active) and the IC50 [11] is reported as 2.36 µM (active).
